ChEMBL document CHEMBL1201862, “PubChem BioAssay data set” (2004)
Activity calls are given as the source filed them.

System: not listed separately
Assay: cytotoxicity toward NIH3T3 fibroblasts, dose response, counter-screen, cell-based, ATP luminescence, mouse fibroblasts (AID 2010);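 note: cells exposed to compound for about 90 hours before reading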
Assay type: functional

Row | SMILES | EC50
1 | COC(=O)C1CCN(C(=O)CN(C)Cc2ccc(C(C)(C)C)cc2)CC1 | > 60 µM (not active)

Biological target: T1, Sentrin-specific protease 7 (Homo sapiens, UniProt Q9BQF6);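 note: Luminescence-based dose-response confirmation of ultra-high-throughput screening hits, measuring inhibition of SENP7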
T1 sequence (Q9BQF6 whole entry): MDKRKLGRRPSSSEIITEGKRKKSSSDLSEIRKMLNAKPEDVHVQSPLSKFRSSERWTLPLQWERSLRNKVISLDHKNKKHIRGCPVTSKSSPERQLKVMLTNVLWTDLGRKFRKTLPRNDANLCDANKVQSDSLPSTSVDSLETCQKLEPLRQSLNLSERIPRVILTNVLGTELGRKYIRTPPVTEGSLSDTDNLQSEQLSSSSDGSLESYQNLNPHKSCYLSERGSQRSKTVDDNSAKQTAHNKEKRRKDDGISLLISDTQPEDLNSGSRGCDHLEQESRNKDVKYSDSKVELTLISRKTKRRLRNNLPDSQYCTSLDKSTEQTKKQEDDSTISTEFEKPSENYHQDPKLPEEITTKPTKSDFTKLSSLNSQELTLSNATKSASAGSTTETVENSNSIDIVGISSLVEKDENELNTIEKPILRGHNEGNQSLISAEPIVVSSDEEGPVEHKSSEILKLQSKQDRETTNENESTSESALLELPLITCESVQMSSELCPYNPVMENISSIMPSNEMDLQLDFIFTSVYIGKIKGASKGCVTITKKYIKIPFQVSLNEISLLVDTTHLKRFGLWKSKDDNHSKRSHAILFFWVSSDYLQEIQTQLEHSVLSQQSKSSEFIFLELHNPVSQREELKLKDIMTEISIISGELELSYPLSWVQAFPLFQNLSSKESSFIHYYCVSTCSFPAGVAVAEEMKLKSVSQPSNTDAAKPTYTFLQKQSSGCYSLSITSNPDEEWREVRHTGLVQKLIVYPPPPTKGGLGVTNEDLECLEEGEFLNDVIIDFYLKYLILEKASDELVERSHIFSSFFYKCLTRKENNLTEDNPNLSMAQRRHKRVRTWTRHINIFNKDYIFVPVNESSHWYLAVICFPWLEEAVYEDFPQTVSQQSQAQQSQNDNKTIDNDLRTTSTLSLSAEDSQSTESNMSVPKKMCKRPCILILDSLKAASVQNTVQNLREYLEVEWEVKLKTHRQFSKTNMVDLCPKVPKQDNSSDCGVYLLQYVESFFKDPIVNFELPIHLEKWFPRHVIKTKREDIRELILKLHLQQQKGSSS
Assay: not given
Assay type: functional

Row | SMILES | IC50
2 | O=C(OCc1ccccc1Cl)c1cccnc1Cl | 11.8 µM (active)
3 | Clc1cccc(-c2ccc(-c3nc4ccccn4c3NCc3ccccc3)cc2)c1 | 7.22 µM (active)
4 | CCOC(=O)/C(C#N)=C/c1ccc(N2CCCCC2)cc1 | 7.1 µM (active)
5 | COc1ccc(C(=O)COC(=O)c2ccccc2O)c(OC)c1 | 8.26 µM (active)
6 | O=C(Nc1ccccc1)Nc1ccccc1C(=O)NCc1ccccc1 | 6.13 µM (active)
7 | Brc1c(-c2ccccc2)nc2n1Cc1ccccc1-2 | 5.23 µM (active)

System: not listed separately
Assay: inhibitors of intracellular T. cruzi replication, confirmation, NIH3T3 host cells, beta-gal luminescence (AID 2044);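 note: intracellular parasites grown in NIH/3T3 mouse fibroblasts as host cells; luminescent beta-galactosidase reporter signal from transgenic T. cruzi replicating inside host cells; inhibitors lower the luminescence signal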
Assay type: functional, cell-based

Row | SMILES | EC50
8 | COC(=O)C1CCN(C(=O)CN(C)Cc2ccc(C(C)(C)C)cc2)CC1 | 0.513 µM (active)

Biological target: T2, Sentrin-specific protease 8 (Homo sapiens, UniProt Q96LD8);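 note: luminescence read-out of SENP8 inhibition, dose-response confirmation following an ultra-high-throughput screen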
T2 sequence (Q96LD8 whole entry): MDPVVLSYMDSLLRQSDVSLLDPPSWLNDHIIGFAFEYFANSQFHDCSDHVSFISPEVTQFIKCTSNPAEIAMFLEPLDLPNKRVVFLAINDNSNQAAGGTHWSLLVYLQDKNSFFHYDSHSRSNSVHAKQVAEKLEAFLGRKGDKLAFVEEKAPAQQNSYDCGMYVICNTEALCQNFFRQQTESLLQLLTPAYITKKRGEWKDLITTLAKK
Assay: not given
Assay type: functional

Row | SMILES | IC50
9 | O=C(OCc1ccccc1Cl)c1cccnc1Cl | 27.3 µM (active)
10 | Clc1cccc(-c2ccc(-c3nc4ccccn4c3NCc3ccccc3)cc2)c1 | 18 µM (active)
11 | CCOC(=O)/C(C#N)=C/c1ccc(N2CCCCC2)cc1 | 31.6 µM (active)
12 | COc1ccc(C(=O)COC(=O)c2ccccc2O)c(OC)c1 | 53.1 µM (active)
13 | O=C(Nc1ccccc1)Nc1ccccc1C(=O)NCc1ccccc1 | > 100 µM (inactive)
14 | Brc1c(-c2ccccc2)nc2n1Cc1ccccc1-2 | 7.57 µM (active)

System: Streptococcus sp. 'group A'
Assay: growth inhibition of control SK(-) GAS strain, dose response, counter-screen for streptokinase expression inhibitor project, luminescence, kanamycin, BacTiterGlo, confirmation (AID 1900)
Assay type: functional, organism-based

Row | SMILES | EC50
15 | O=C1/C(=C/c2cccs2)CCC/C1=C\c1cccs1 | > 150 µM (not active)

Biological target: T3, Caspase-3 (Homo sapiens, UniProt P42574);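 note: Dose-response selectivity test against caspase-3 for candidate inhibitors of sentrin-specific proteases (SENPs)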
T3 sequence (P42574 whole entry): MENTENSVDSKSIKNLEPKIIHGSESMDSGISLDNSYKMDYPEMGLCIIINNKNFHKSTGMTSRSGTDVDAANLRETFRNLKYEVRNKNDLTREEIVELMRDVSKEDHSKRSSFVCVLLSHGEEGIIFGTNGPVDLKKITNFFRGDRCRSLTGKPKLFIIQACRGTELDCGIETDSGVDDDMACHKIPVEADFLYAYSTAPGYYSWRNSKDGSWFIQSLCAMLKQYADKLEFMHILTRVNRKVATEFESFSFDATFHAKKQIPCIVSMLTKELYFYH
Assay: not given
Assay type: functional

Row | SMILES | IC50
16 | O=C(OCc1ccccc1Cl)c1cccnc1Cl | 23.5 µM (active)
17 | Clc1cccc(-c2ccc(-c3nc4ccccn4c3NCc3ccccc3)cc2)c1 | 12.9 µM (active)
18 | CCOC(=O)/C(C#N)=C/c1ccc(N2CCCCC2)cc1 | 23.4 µM (active)
19 | COc1ccc(C(=O)COC(=O)c2ccccc2O)c(OC)c1 | 27.6 µM (active)
20 | O=C(Nc1ccccc1)Nc1ccccc1C(=O)NCc1ccccc1 | 39.4 µM (active)
21 | Brc1c(-c2ccccc2)nc2n1Cc1ccccc1-2 | 15 µM (active)

System: not listed separately
Assay: NIH-3T3 fibroblast cytotoxicity, dose response, cytotoxicity control, cell-based, fluorescence, Alamar Blue, secondary assay (AID 2327);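 note: NIH-3T3 mouse fibroblasts cultured with fluconazole at 8 µg/mL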
Assay type: functional

Row | SMILES | EC50
22 | CC/C(C)=N/Nc1cccc([N+](=O)[O-])c1 | 19.8 µM (active)
23 | C=CCn1c(SCc2ccc(C(=O)Nc3ccccc3)cc2)nnc1-c1ccccc1 | > 160 µM (inactive)
24 | COC(=O)C1CCN(C(=O)CN(C)Cc2ccc(C(C)(C)C)cc2)CC1 | > 150 µM (inactive)

System: not listed separately
Assay: C. albicans growth with fluconazole, confirmation, fluorescence, retest (AID 2467)
Assay type: functional, cell-based

Row | SMILES | EC50
25 | CC/C(C)=N/Nc1cccc([N+](=O)[O-])c1 | > 38 µM (not active)
26 | C=CCn1c(SCc2ccc(C(=O)Nc3ccccc3)cc2)nnc1-c1ccccc1 | > 38 µM (not active)
27 | COC(=O)C1CCN(C(=O)CN(C)Cc2ccc(C(C)(C)C)cc2)CC1 | 1.43 µM (inconclusive)

Biological target: T4, Streptokinase A (Streptococcus pyogenes serotype M1, UniProt P10520)
T4 sequence (P10520 whole entry): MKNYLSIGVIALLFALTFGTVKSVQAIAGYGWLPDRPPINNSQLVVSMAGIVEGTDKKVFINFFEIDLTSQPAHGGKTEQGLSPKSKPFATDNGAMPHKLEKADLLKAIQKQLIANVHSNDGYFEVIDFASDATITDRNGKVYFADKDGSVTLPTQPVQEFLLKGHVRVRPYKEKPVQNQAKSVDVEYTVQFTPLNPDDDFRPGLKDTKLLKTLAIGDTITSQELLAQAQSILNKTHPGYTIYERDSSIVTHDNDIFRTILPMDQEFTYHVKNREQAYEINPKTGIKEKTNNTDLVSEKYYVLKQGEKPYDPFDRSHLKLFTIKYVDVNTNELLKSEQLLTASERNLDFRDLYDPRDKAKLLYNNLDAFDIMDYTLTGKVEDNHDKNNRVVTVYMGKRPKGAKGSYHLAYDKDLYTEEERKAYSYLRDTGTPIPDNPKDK
Assay: S. pyogenes streptokinase expression inhibitors, potency, dose response, plasminogen activation absorbance, OD405 (AID 1914);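 note: secreted streptokinase activity via plasminogen activation per viability signal from cell pellet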
Assay type: functional, Streptococcus pyogenes M1 GAS

Row | SMILES | EC50
28 | O=C1/C(=C/c2cccs2)CCC/C1=C\c1cccs1 | 68.5 µM (active)

System: not listed separately
Assay: cells
Assay type: functional

Row | SMILES | IC50
29 | COc1ccc(C(=O)COC(=O)c2ccccc2O)c(OC)c1 | 36.9 µM (active)

Biological target: T5, Protein skinhead-1 (Caenorhabditis elegans, UniProt P34707)
T5 sequence (P34707 whole entry): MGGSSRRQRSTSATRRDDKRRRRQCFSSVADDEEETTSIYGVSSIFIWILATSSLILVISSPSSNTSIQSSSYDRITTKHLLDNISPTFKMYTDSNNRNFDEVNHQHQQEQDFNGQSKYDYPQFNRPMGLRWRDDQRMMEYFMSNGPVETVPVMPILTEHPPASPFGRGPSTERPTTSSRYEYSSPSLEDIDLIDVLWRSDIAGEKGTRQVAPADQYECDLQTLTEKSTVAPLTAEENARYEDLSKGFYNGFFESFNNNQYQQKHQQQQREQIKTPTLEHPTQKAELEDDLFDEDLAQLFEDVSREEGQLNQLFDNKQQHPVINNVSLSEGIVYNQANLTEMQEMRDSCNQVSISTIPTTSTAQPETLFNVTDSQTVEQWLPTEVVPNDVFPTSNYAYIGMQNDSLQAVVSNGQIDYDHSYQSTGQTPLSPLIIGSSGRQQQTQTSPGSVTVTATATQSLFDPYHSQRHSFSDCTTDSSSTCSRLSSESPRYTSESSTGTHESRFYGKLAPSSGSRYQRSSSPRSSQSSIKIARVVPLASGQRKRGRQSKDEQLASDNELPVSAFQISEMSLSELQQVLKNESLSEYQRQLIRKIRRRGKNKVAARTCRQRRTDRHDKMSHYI
Assay: not given
Assay type: functional

Row | SMILES | IC50
30 | O=C1/C(=C/c2cccs2)CCC/C1=C\c1cccs1 | 95.2 µM (inactive)

Biological target: T6, Sentrin-specific protease 6 (Homo sapiens, UniProt Q9GZR1);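 note: Luminescence-based dose-response confirmatory assay of SENP6 inhibition, following up an ultra-high-throughput screen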
T6 sequence (Q9GZR1 whole entry): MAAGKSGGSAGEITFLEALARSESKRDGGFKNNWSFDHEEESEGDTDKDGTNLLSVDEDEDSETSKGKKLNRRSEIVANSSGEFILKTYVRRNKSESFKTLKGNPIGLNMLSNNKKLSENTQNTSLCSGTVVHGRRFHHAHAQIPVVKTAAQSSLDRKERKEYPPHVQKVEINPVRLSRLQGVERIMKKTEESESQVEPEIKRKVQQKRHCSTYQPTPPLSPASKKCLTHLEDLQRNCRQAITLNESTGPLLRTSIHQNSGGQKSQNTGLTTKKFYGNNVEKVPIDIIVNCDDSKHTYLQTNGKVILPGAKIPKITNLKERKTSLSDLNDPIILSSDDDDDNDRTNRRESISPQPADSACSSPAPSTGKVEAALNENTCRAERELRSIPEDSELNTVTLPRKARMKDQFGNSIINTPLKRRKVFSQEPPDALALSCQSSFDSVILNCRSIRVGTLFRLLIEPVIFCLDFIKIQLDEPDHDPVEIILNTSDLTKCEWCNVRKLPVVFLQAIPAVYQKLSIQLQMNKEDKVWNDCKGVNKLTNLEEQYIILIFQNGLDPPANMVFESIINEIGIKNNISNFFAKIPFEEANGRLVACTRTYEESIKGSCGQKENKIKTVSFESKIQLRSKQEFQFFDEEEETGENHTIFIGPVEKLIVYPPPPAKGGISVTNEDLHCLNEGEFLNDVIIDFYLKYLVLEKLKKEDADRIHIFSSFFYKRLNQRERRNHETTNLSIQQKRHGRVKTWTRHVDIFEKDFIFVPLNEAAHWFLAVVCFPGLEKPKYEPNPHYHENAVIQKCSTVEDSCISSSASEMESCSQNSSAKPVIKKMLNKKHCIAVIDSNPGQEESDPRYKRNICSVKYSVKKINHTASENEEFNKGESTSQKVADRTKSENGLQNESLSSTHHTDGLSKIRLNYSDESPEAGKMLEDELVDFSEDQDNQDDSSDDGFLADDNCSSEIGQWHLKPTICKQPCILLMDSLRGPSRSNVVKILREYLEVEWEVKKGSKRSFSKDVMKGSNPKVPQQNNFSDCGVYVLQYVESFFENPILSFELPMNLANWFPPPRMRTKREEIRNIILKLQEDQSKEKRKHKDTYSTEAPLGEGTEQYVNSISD
Assay: not given
Assay type: functional

Row | SMILES | IC50
31 | O=C(OCc1ccccc1Cl)c1cccnc1Cl | 36.6 µM (active)
32 | Clc1cccc(-c2ccc(-c3nc4ccccn4c3NCc3ccccc3)cc2)c1 | 9.6 µM (active)
33 | CCOC(=O)/C(C#N)=C/c1ccc(N2CCCCC2)cc1 | 41.4 µM (active)
34 | COc1ccc(C(=O)COC(=O)c2ccccc2O)c(OC)c1 | 13.8 µM (active)
35 | O=C(Nc1ccccc1)Nc1ccccc1C(=O)NCc1ccccc1 | > 100 µM (inactive)
36 | Brc1c(-c2ccccc2)nc2n1Cc1ccccc1-2 | 6.75 µM (active)

Biological target: Cytochrome P450 2D6 (Homo sapiens, UniProt P10635);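 note: CYP2D6 member of a cytochrome P450 panel assay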
Assay: not given

Sequence of Cytochrome P450 2D6 (P10635 whole entry): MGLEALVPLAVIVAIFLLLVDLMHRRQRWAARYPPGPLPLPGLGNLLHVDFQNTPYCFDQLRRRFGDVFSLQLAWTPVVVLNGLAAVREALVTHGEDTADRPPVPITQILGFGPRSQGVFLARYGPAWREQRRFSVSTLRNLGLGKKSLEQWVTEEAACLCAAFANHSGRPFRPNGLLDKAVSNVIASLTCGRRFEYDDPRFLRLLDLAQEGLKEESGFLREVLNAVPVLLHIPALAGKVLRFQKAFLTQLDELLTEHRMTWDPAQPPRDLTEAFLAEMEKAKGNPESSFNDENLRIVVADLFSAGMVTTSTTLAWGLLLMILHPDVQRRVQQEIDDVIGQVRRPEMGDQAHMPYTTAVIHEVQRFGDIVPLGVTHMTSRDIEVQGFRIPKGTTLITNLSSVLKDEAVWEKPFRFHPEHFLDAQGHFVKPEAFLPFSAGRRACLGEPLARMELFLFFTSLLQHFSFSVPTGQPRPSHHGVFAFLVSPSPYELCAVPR

Row | SMILES | AC50
37 | C=CCn1c(SCc2ccc(C(=O)Nc3ccccc3)cc2)nnc1-c1ccccc1 | 22.4 µM (inconclusive)

System: Streptococcus
Assay: Group A Streptococcus viability loss, dose response, counter-screen for streptokinase expression inhibitor project, luminescence, BacTiterGlo (AID 1915);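 note: potency for reduction of bacterial viability or growth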
Assay type: functional, organism-based

Row | SMILES | EC50
38 | O=C1/C(=C/c2cccs2)CCC/C1=C\c1cccs1 | > 150 µM (not active)
